The source of these data is patent US11300568B2, “Methods for the diagnosis and treatment of gastrointestinal stromal tumors” (INSERM (INSTITUT NATIONAL DE LA SANTE ET DE LA RECHERCHE …, priority 2016, dated 2022).

Where a name gives a salt, the structure may show the parent alone.

Data set [1] deals with GIST. As to conditions: after 5 years; increased from 30% after 1 year; cited from earlier work.
Data set [2] deals with LIX1 expression in GIST-T1 cells. Description: LIX1 expression by RT-qPCR in GIST-T1 cells. The data set is classed as cell-based, human. To be noted: 0.5 μM, 6 h, 24 h and 48 h, vs DMSO control. The method, then:
Analysis of LIX1 expression by RT-qPCR in GIST-T1 cells upon incubation with DMSO alone (control) or with 0.5 μM of imatinib mesylate (KIT inhibitor) for 6 h, 24 h and 48 h. Normalized expression levels were converted to fold changes. **P<0.01; ***P<0.001.
Resistance to tyrosine kinase inhibitors such as imatinib is increasing in GISTs and complete remissions are rare, highlighting the necessity to identify additional therapeutic targets. The inventors investigated the role of LIX1 in secondary imatinib-resistant GISTs using GIST-T1 cells, a primary gastric GIST cell line sensitive to Imatinib treatment that harbors hetereygous deletion in KIT gene with constitutive KIT signaling pathway.
A general note: In qPCR the cycle at which signal appears reflects the starting amount.

In data set [3] the test system is LIX1 transcript levels in GIST882 cells. The data set can be described thus: LIX1 expression by RT-qPCR in GIST882 cells. The data set is classed as cell-based, human. To be noted: 1 μM, 6 h, 24 h and 48 h, vs DMSO control. The method, then: FIG. 1: LIX1 is expressed in GISTs. (A) LIX1 mRNA expression and regulation in the GIST882 cell line. (a) Semi-quantitative RT-PCR analysis of LIX1 transcript level in 131N1 (astrocytoma cells), PC3 (prostate cancer cells), HeLa, and GIST882 cells. Loading was verified by glyceraldehyde-3-phosphate dehydrogenase (GAPDH) expression. (b) Analysis of LIX1 expression by RT-qPCR in GIST882 cells upon incubation with DMSO alone (control) or with 7.5 μM of Akti (inhibitor of AKT) for 6 h, 24 h and 48 h. Normalized expression levels were converted to fold changes. *P<0.05; **P<0.01. (c) Analysis of LIX1 expression by RT-qPCR in GIST882 cells upon incubation with DMSO alone (control) or with 1 μM of imatinib mesylate (KIT inhibitor) for 6 h, 24 h and 48 h. […] (b) Relapse-free survival from initial imatinib mesylate treatment in group 1 presenting low level of LIX1 compared with group 2 presenting high level of LIX1 individuals with GIST, assessed in a univariate analysis using the Kaplan-Meier method. […]
Total RNA was extracted from stomachs or cell cultures with the HighPure RNA Isolation kit (Roche). […] Each sample was analysed in three independent experiments done in triplicate. Expression levels were determined with the LightCycler analysis software (version 3.5) relative to standard curves. […] Relative mRNA expression was calculated using the 2^−ΔΔCT method. […]

Data set [4] relates to DF-1 fibroblast cell line. Description: Analysis of cell death in DF-1 cultures. As to conditions: 1 μM for 20 hours. Format: cell-based, chicken. As for the experimental part: (§1) The chicken DF-1 fibroblast cell line was cultured as previously described. Cell growth in DF-1 cultures was assessed using the Muse Count and Viability reagent following the manufacturer's specifications (Muse Cell Analyzer-Millipore). DF-1 cells were plated on plastic at 2000 cells/cm^2 to obtain low-density cultures and 6000 cells/cm^2 to obtain high-density cultures. Verteporfin (Sellekchem) was used applied to DF-1 cells for 20 hours at a final concentration of 1 μM.
(§2) DF-1 chicken fibroblasts were infected with replication-competent RCAS retroviruses and cultured for 5 days to ensure homogeneous expression. […] This greater expression was associated with higher transcript levels of YAP1 pro-proliferation target genes CTGF and CYR61 and an increase in cell proliferation. […] After 3 days in culture, LIX1-expressing cells had grown faster than control cells. However, although YAP1 expression in LIX1-expressing cells remained higher than in controls, the levels of CTGF and CYR61 transcripts were similar to control levels.

Data set [5] has as its system YAP1 activity (YAP-TEAD interaction). Description: RT-qPCR of YAP1 and its targets CTGF and CYR61 in LIX1-expressing DF-1 cells. Format: cell-based, chicken. As to conditions: low density, 1 μM for 20 hours. The method, then:
as §1
Total RNA was extracted from stomachs or cell cultures with the HighPure RNA Isolation kit (Roche). Reverse transcription was performed using the Verso cDNA synthesis kit (Thermo Scientific) and RT-qPCR was performed using LightCycler technology (Roche Diagnostics). PCR primers were designed using the LightCycler Probe Design 2.0 software. Each sample was analysed in three independent experiments done in triplicate. Expression levels were determined with the LightCycler analysis software (version 3.5) relative to standard curves. Data were represented as the mean level of gene expression relative to the expression of the reference genes UBIQUITIN or GAPDH. Relative mRNA expression was calculated using the 2^−ΔΔCT method.
DF-1 chicken fibroblasts were infected with replication-competent RCAS retroviruses and cultured for 5 days to ensure homogeneous expression. […]

Data set [6] deals with DF-1 fibroblast cell line. Description: Cell proliferation of LIX1-expressing DF-1 cultures (Muse Count and Viability). The data set is classed as cell-based, chicken. As to conditions: LIX1-expressing DF-1 cells, low density, 1 μM for 20 hours. The method, then:
as §1, §2

On to `Cc1ccc(NC(=O)c2ccc(CN3CCN(C)CC3)cc2)cc1Nc1nccc(-c2cccnc2)n1` [imatinib mesylate], for which the GIST patient survival in data set [1] is on record as 50%. Also, the LIX1 expression result in data set [2] is reported as “upregulated”. For the same compound, in data set [3], the LIX1 transcript levels result is “strong and efficient inhibition of LIX1 transcript levels”.

In the case of verteporfin, the “cytotoxic effect (cell death)” value in data set [4] is reported as “not due to a cytotoxic effect”. Further, in data set [5], the YAP1 expression entry is given as “upregulation of YAP1 was still observed”; the “levels of CTGF and CYR61 transcripts” value is “comparable with control cells”. Besides, the rates of proliferation entry in data set [6] is “comparable with control cells”.
